Assay results published in PMC12638379, “An innovative approach to development of new pyrazolylquinolin-2-one hybrids as dual EGFR and BRAF^V600E inhibitors” (Molecular Diversity, 2025).
Like-named read-outs stand apart in the source and are kept apart here.

Tested on: NCI 60 cancer cell lines
Assay: NCI anticancer screening over a panel of 60 cancer cells, single concentration 10 µM
Format: cell-based, human
Conditions: Homo sapiens, read-out: Growth inhibition (GI %)
Experimental: Ten final compounds 4a–j and five intermediates 2a–e have been selected by the National Cancer Institute (NCI) for anticancer screening over a panel of 60 cancer cells that cover a variety of histological tissues, including the central nervous system, leukemia, lung, colon, kidney, ovary, breast, and prostate, using the protocol established by the National Cancer Institute (NCI). In a primary screening, each compound was screened at a concentration of 10 µM.
Compounds 2a-e and 4a-j were selected by the National Cancer Institute (NCI) according to the protocol of the Compound Evaluation Branch of the National Cancer Institute, Bethesda, USA, for in vitro anticancer screening which refers in turn to apoptotic activity. The methodology of the NCI anticancer screening has been described in detail elsewhere (http://www.dtp.nci.nih.gov).

[1] = A549, Non-small cell lung cancer A549/ATCC, 10 μM
[2] = BT-549, Breast cancer BT-549, 10 μM
[3] = CAKI-1, Renal cancer CAKI-1, 10 μM
[4] = CCRF-CEM, Leukemia CCRF-CEM, 10 μM
[5] = COLO 205, Colon cancer COLO 205, 10 μM
[6] = DU-145, Prostate cancer DU-145, 10 μM
[7] = EKVX, Non-small cell lung cancer EKVX, 10 μM
[8] = HCC 2998, Colon cancer HCC-2998, 10 μM
[9] = HCT-15, Colon cancer HCT-15, 10 μM
[10] = HCT-116, Colon cancer HCT-116, 10 μM
[11] = HL-60, Leukemia HL-60(TB), 10 μM
[12] = HOP-62, Non-small cell lung cancer HOP-62, 10 μM
[13] = HOP-92, Non-small cell lung cancer HOP-92, 10 μM
[14] = HT-29, Colon cancer HT29, 10 μM
[15] = Hs-578T, Breast cancer HS 578T, 10 μM
[16] = IGROV-1, Ovarian cancer IGROV1, 10 μM
[17] = LOX IMVI, Melanoma LOX IMVI, 10 μM
[18] = MCF7, Breast cancer MCF7, 10 μM
[19] = MDA-MB-435, Melanoma MDA-MB-435, 10 μM
[20] = MDA-MB-468, Breast cancer MDA-MB-468, 10 μM
[21] = Malme-3M, Melanoma MALME-3M, 10 μM
[22] = NCI-H23, Non-small cell lung cancer NCI-H23, 10 μM
[23] = NCI-H226, Non-small cell lung cancer NCI-H226, 10 μM
[24] = NCI-H322M, Non-small cell lung cancer NCI-H322M, 10 μM
[25] = NCI-H460, Non-small cell lung cancer NCI-H460, 10 μM
[26] = NCI-H522, Non-small cell lung cancer NCI-H522, 10 μM
[27] = NCI/ADR-RES, Ovarian cancer NCI/ADR-RES, 10 μM
[28] = OVCAR-3, Ovarian cancer OVCAR-3, 10 μM
[29] = OVCAR-4, Ovarian cancer OVCAR-4, 10 μM
[30] = OVCAR-5, Ovarian cancer OVCAR-5, 10 μM
[31] = OVCAR-8, Ovarian cancer OVCAR-8, 10 μM
[32] = RPMI-8226, Leukemia RPMI-8226, 10 μM
[33] = RXF 393, Renal cancer RXF 393, 10 μM
[34] = SF-268, CNS Cancer SF-268, 10 μM
[35] = SF-295, CNS Cancer SF-295, 10 μM
[36] = SF-539, CNS Cancer SF-539, 10 μM
[37] = SK-MEL-2, Melanoma SK-MEL-2, 10 μM
[38] = SK-MEL-5, Melanoma SK-MEL-5, 10 μM
[39] = SK-MEL-28, Melanoma SK-MEL-28, 10 μM
[40] = SK-OV-3, Ovarian cancer SK-OV-3, 10 μM
[41] = SN12C, Renal cancer SN12C, 10 μM
[42] = SNB-19, CNS Cancer SNB-19, 10 μM
[43] = SNB-75, CNS Cancer SNB-75, 10 μM
[44] = SW-620, Colon cancer SW-620, 10 μM
[45] = T47D, Breast cancer T-47D, 10 μM
[46] = TK-10, Renal cancer TK-10, 10 μM
[47] = UACC-62, Melanoma UACC-62, 10 μM
[48] = UACC-257, Melanoma UACC-257, 10 μM
[49] = UO-31, Renal cancer UO-31, 10 μM

Molecule `COc1ccc2[nH]c(=O)cc(-n3ncc(C(C)=O)c3C)c2c1` [Compound 2c, 4-(4-Acetyl-5-methyl-1H-pyrazol-1-yl)-6-methoxyquinolin-2(1H)-one] has an inhibition at 10 µM (786-0, Renal cancer 786-0, 10 μM) of less than 5%, an inhibition at 10 µM (A498, Renal cancer A498, 10 μM) of less than 5% and an inhibition at 10 µM [1] of less than 5%. It also gave an inhibition at 10 µM (ACHN, Renal cancer ACHN, 10 μM) of less than 5%, an inhibition at 10 µM [2] of less than 5% and an inhibition at 10 µM [3] of 15.6%. The inhibition at 10 µM [4] was 5.28%, the inhibition at 10 µM [5] was less than 5% and the inhibition at 10 µM [6] was less than 5%. The inhibition at 10 µM [7] was 6.27%, the inhibition at 10 µM [8] was less than 5% and the inhibition at 10 µM [9] was less than 5%. It also gave an inhibition at 10 µM [10] of 7.78%, an inhibition at 10 µM [11] of 12.5% and an inhibition at 10 µM [12] of 18.8%. The inhibition at 10 µM [13] was 31.6%, the inhibition at 10 µM [14] was less than 5% and the inhibition at 10 µM [15] was less than 5%. It also gave an inhibition at 10 µM [16] of less than 5%, an inhibition at 10 µM (K562, Leukemia K-562, 10 μM) of less than 5% and an inhibition at 10 µM (KM12, Colon cancer KM12, 10 μM) of less than 5%. It also gave an inhibition at 10 µM [17] of 11.3%, an inhibition at 10 µM (Leukemia SR, 10 μM) of 8.98% and an inhibition at 10 µM [18] of less than 5%. For the same molecule, the inhibition at 10 µM (MDA-MB-231, Breast Cancer MDA-MB 231/ATCC, 10 μM) was 7%, the inhibition at 10 µM [19] was less than 5% and the inhibition at 10 µM [20] was less than 5%. The inhibition at 10 µM (MOLT-4, Leukemia MOLT-4, 10 μM) was less than 5%, the inhibition at 10 µM [21] was less than 5% and the inhibition at 10 µM (Melanoma M14, 10 μM) was less than 5%. For the same molecule, the inhibition at 10 µM [22] was less than 5%, the inhibition at 10 µM [23] was 7.15% and the inhibition at 10 µM [24] was 7.11%. It also gave an inhibition at 10 µM [25] of less than 5%, an inhibition at 10 µM [26] of 8.32% and an inhibition at 10 µM [27] of less than 5%. It also gave an inhibition at 10 µM [28] of less than 5%, an inhibition at 10 µM [29] of less than 5% and an inhibition at 10 µM [30] of less than 5%. For the same molecule, the inhibition at 10 µM [31] was less than 5%, the inhibition at 10 µM (Prostate cancer PC-3, 10 μM) was 13.4% and the inhibition at 10 µM [32] was 11.7%. It also gave an inhibition at 10 µM [33] of less than 5%, an inhibition at 10 µM [34] of less than 5% and an inhibition at 10 µM [35] of less than 5%. The inhibition at 10 µM [36] was less than 5%, the inhibition at 10 µM [37] was less than 5% and the inhibition at 10 µM [38] was less than 5%. For the same molecule, the inhibition at 10 µM [39] was less than 5%, the inhibition at 10 µM [40] was 7.83% and the inhibition at 10 µM [41] was less than 5%. It also gave an inhibition at 10 µM [42] of less than 5%, an inhibition at 10 µM [43] of 11.8% and an inhibition at 10 µM [44] of less than 5%. The inhibition at 10 µM [45] was 9.18%, the inhibition at 10 µM [46] was less than 5% and the inhibition at 10 µM (U-251, CNS Cancer U251, 10 μM) was 5.38%. The inhibition at 10 µM [47] was less than 5%, the inhibition at 10 µM [48] was less than 5% and the inhibition at 10 µM [49] was 34.4%.

For `CC(=O)c1cnn(-c2cc(=O)[nH]c3ccc(Cl)cc23)c1C` [Compound 2d, 4-(4Aacetyl-5-methyl-1H-pyrazol-1-yl)-6-chloroquinolin-2(1H)-one], the inhibition at 10 µM (A498, Renal cancer A498, 10 μM) was less than 5%, the inhibition at 10 µM [1] was 5.11% and the inhibition at 10 µM (ACHN, Renal cancer ACHN, 10 μM) was 7.6%. The inhibition at 10 µM [2] was less than 5%, the inhibition at 10 µM [3] was 15.1% and the inhibition at 10 µM [4] was 8.99%. The inhibition at 10 µM [5] was less than 5%, the inhibition at 10 µM [6] was less than 5% and the inhibition at 10 µM [7] was 13.9%. For the same molecule, the inhibition at 10 µM [8] was less than 5%, the inhibition at 10 µM [9] was less than 5% and the inhibition at 10 µM [10] was less than 5%. The inhibition at 10 µM [11] was 6.19%, the inhibition at 10 µM [12] was 9.35% and the inhibition at 10 µM [13] was 13.4%. The inhibition at 10 µM [14] was less than 5%, the inhibition at 10 µM [15] was less than 5% and the inhibition at 10 µM [16] was 7.41%. For the same molecule, the inhibition at 10 µM (K562, Leukemia K-562, 10 μM) was 5.5%, the inhibition at 10 µM (KM12, Colon cancer KM12, 10 μM) was less than 5% and the inhibition at 10 µM [17] was 11.2%. The inhibition at 10 µM (Leukemia SR, 10 μM) was less than 5%, the inhibition at 10 µM [18] was 6.43% and the inhibition at 10 µM [19] was less than 5%. For the same molecule, the inhibition at 10 µM [20] was less than 5%, the inhibition at 10 µM (MOLT-4, Leukemia MOLT-4, 10 μM) was 8.77% and the inhibition at 10 µM [21] was 13.3%. It also gave an inhibition at 10 µM (Melanoma M14, 10 μM) of less than 5%, an inhibition at 10 µM [22] of 5.37% and an inhibition at 10 µM [23] of 16.6%. It also gave an inhibition at 10 µM [24] of 12.2%, an inhibition at 10 µM [25] of less than 5% and an inhibition at 10 µM [26] of 5.29%. It also gave an inhibition at 10 µM [27] of 5.32%, an inhibition at 10 µM [28] of less than 5% and an inhibition at 10 µM [29] of less than 5%. For the same molecule, the inhibition at 10 µM [30] was less than 5%, the inhibition at 10 µM [31] was less than 5% and the inhibition at 10 µM (Prostate cancer PC-3, 10 μM) was 11%. The inhibition at 10 µM [32] was 9.16%, the inhibition at 10 µM [33] was less than 5% and the inhibition at 10 µM [34] was less than 5%. For the same molecule, the inhibition at 10 µM [35] was 5.21%, the inhibition at 10 µM [36] was 14.4% and the inhibition at 10 µM [37] was less than 5%. It also gave an inhibition at 10 µM [38] of 5.89%, an inhibition at 10 µM [39] of less than 5% and an inhibition at 10 µM [40] of 6.14%. It also gave an inhibition at 10 µM [41] of 15.2%, an inhibition at 10 µM [42] of 7.35% and an inhibition at 10 µM [43] of less than 5%. For the same molecule, the inhibition at 10 µM [44] was less than 5%, the inhibition at 10 µM [45] was less than 5% and the inhibition at 10 µM [46] was less than 5%. For the same molecule, the inhibition at 10 µM (U-251, CNS Cancer U251, 10 μM) was less than 5%, the inhibition at 10 µM [47] was 15.7% and the inhibition at 10 µM [48] was less than 5%. It also gave an inhibition at 10 µM [49] of 35%.
